Source: PubChem BioAssay (NCI)
“And” between values parts separate entries of the source, which are not always exact repeats. Identical values can stand only once.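 Values below derive from 48-hour exposures of cells grown in 96-well plates, with endpoints linearly interpolated between the two concentrations bracketing the appropriate inhibition level. GI50 marks 50% less growth. TGI: concentration producing complete growth inhibition.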

System: MCF7 breast
Experiment: NCI-60 cell line screen, 48 h

| SMILES | GI50 [µM] | TGI [µM] |
| --- | --- | --- |
| O=C(Cc1ccc(F)c(Cl)c1)Nc1cc(C2(C(F)(F)F)CC2)nn1CC1CCCCC1 | 4.01 | > 15 |
| NC1CCN(Cc2ccccc2)CC1 | > 100 | > 100 |
| Nc1ncn([C@@H]2O[C@H](CO)[C@@H](O)[C@H]2O)c(=O)n1 | 1.24 | 18.2 |
| CC(=O)Nc1ccc(-c2csc(Nc3cccc(-c4csc(C)n4)c3)n2)cc1 | 0.68 | > 50 |
| C=CCC1(c2ccc(OC)cc2)C=CC(=O)CC1 (stereo not drawn) | – | > 100 |
| COc1ccc(C(=O)Nc2ccc(O)c(=O)cc2)cc1 | – | 65 |

System: 786-0 renal
Experiment: NCI-60 cell line screen, 48 h

| SMILES | GI50 [µM] | TGI |
| --- | --- | --- |
| CC1(C)OC2C(CO[Si](C)(C)C(C)(C)C)OC(n3c(I)c(C#C[Si](C)(C)C)c(=O)[nH]c3=O)C2O1 (stereo not drawn) | 13.1 | 26.8 µM |
| CN(C)CC[C@H](CSc1ccccc1)Nc1ccc(S(=O)(=O)NC(=O)c2ccc(N3CCN(Cc4ccccc4-c4ccc(Cl)cc4)CC3)cc2)cc1[N+](=O)[O-] | 3.6 | 15.1 µM |
| COc1ccc(-c2ccc(=O)oc2C#Cc2cc(OC)c(OC)c(OC)c2)cc1O | 1.18 | > 100 µM |
| O=C(/C=C/c1ccc[nH]1)c1ccc(-n2ccc(C(F)(F)F)n2)cc1 | 6.17 | > 100 µM |
| O=C(c1ccco1)c1c(C(F)(F)F)nc2ccc(Cl)cc2[n+]1[O-] | > 100 | > 100 µM |
| Clc1cc2c(c(CSc3nc4ccccc4n4cccc34)c1)OCOC2 | 51.6 | > 100 µM |
| CN1CCN(c2ccc(Nc3cc(-c4cccc(-n5ccc6cc(C7CC7)cc(F)c6c5=O)c4CO)cn(C)c3=O)nc2)CC1 | 2.01 | 4.44 µM |
| COc1ccc2nc3ccccc3c(NCc3ccc(F)cc3)c2c1 | 1.87 | 6.82 µM |
| CN(C)C1CCN(C(=O)c2ccc(NC(=O)Nc3ccc(-c4nc(N5CCOCC5)c5cccn5n4)cc3)cc2)CC1 | 0.31 | 6.36 µM |
| COc1cc(N=Nc2ccc(O)c3ncccc23)c2ncccc2c1 | 3.43 | 24.2 µM |
| CCOC(=O)N[C@H]1CCc2cc(OC)c(OC)c(OC)c2-c2ccc(SC)c(=O)cc21 | – | 45.7 µM and > 100 µM |
| CCn1c(O)c(/C=N/NC(=O)C(C)c2ccc(CC(C)C)cc2)sc1=S (stereo not drawn) | 0.606 | > 40.9 µM |
| C[C@@H]1C[C@@H]([C@@H](CC2CC(=O)NC(=O)C2)OC(=O)CC(=O)c2ccccc2)C(=O)[C@@H](C)C1 | 0.293 | 13.2 µM |
| N=c1c2c(-c3ccccc3)c(-c3ccccc3)n(Cc3ccccc3)c2ncn1C1CCC(O)CC1 (stereo not drawn) | 2.12 | 17.3 µM |
| O=c1c(F)cn(Cc2ccc(C34CC5CC(CC(C5)C3)C4)c(O)c2)c(=O)n1Cc1ccc(C23CC4CC(CC(C4)C2)C3)c(O)c1 | 11.8 | 28.3 µM |
| CCOC(=O)Nc1cc2c(c(N)n1)N=C(c1ccccc1)CO2 | 1.21 | 20.9 µM |
| CC1CC2CCCC(O)=C2C(=O)O1 (stereo not drawn) | – | > 100 µM |
| CC(C)(/C=C(\C#N)C(=O)N1CCC[C@@H](n2nc(-c3ccc(Oc4ccccc4)cc3F)c3c(N)ncnc32)C1)N1CCN(C2COC2)CC1 | 4.12 | 18.9 µM |
| O=c1oc2ccc(-c3ccc(F)cc3F)cc2c(=O)n1-c1cccc(C(F)(F)F)c1 | 2.47 | 6.5 µM |
| COC(=O)c1ccc2c(c1)C(=O)c1c-2n(CCCN=[N+]=[N-])c(=O)c2cc(OC)c(OC)cc12 | > 100 | > 100 µM |
| O=C(Cc1ccc(F)c(Cl)c1)Nc1cc(C2(C(F)(F)F)CC2)nn1CC1CCCCC1 | 4.34 | > 15 µM |
| NC1CCN(Cc2ccccc2)CC1 | > 100 | > 100 µM |
| Nc1ncn([C@@H]2O[C@H](CO)[C@@H](O)[C@H]2O)c(=O)n1 | 0.687 | 13.8 µM |
| CC(=O)Nc1ccc(-c2csc(Nc3cccc(-c4csc(C)n4)c3)n2)cc1 | 2.03 | 18.2 µM |
| C=CCC1(c2ccc(OC)cc2)C=CC(=O)CC1 (stereo not drawn) | – | > 100 µM |
| COc1ccc(C(=O)Nc2ccc(O)c(=O)cc2)cc1 | – | > 100 µM |
